The values below are quoted from earlier work in patent US7329419B2, “Herbal supplement to support weight loss” (Herbalife International, Inc., priority 2004, dated 2008).

The subject of one data set is muscle tissues. As to conditions: animal studies.

As to epigallocatechin-3-gallate [EGCG], the increase in metabolism entry (compared to control) is “approximately 5%”. For the setting “in vivo”, the respiratory quotient entry is on record as “lowers the respiratory quotient”.

Consider Gingerols, for which the “energy expenditure (metabolic rate) in muscle tissues” value in the data set on muscle tissues was “increase energy expenditure”.
